According to publication PMC10891067, “A co-assembly platform engaging macrophage scavenger receptor A for lysosome-targeting protein degradation” (Nature Communications, 2024):
Non-standard residues stand in square brackets, D forms with d. Residues, ends and D or L forms follow the SMILES beside them. *: point of attachment. Acetyl(2-naphthyl) = O=C(Cc1ccc2ccccc2c1)*; Ahx = NCCCCCC(=O)O

Key:
[1] = test system: RAW264.7 cells; assay: IL-17A uptake mechanism: endocytic pathway inhibitors, 4 °C, NaN3; format: cell-based; conditions: RAW264.7, 0.5 μg/ml IL-17A + 50 μM mixed fi-SRAL and fi-17Abp, 6 h; NaN3 100 mM, CPZ 3 μg/ml, Me-β-CD 0.5 mM, EIPA 20 μM
Experimental: To evaluate the uptake mechanism of IL-17A, RAW264.7 cells were pretreated with various inhibitors for 30 min at 37 °C: chlorpromazine (clathrin-mediated endocytosis inhibitor, 3 μg/ml), Me-β-cyclodextrin (0.5 mM, lipid rafting pathway inhibitors), EIPA (20 μM, pinocytosis inhibitor). In addition, the cells were cultured at 4 °C or treated with NaN3 (100 mM) to assess the effect of energy on IL-17A uptake. After that, the cells were cultured with fresh medium containing inhibitors at the same concentrations, 50 μM 17Abp and SRAL mixture, and 0.5 μg/ml IL-17A for 6 h. The uptake of the IL-17A by cells was analyzed through flow cytometry according to the procedure mentioned above.
Supplementary Fig. 5 Uptake of IL-17A by macrophages is an energy-dependent process involving several endocytosis pathways. a) Uptake of IL-17A in RAW264.7 cells incubated at 4 °C or pretreated with 100 mM NaN3 for 0.5 h followed by the addition of 0.5 μg/ml IL-17A and 50 μM mixed fi-SRAL and fi-17Abp peptides for 6 h. b) Uptake of IL-17A in RAW264.7 cells incubated with 0.5 mM Me-β-CD (lipid rafting pathway inhibitor), 20 μM EIPA (pinocytosis inhibitor) or 3 μg/ml CPZ (clathrin-endocytosis inhibitor) for 0.5 h followed by the addition of 0.5 μg/ml IL-17A and 50 μM mixed fi-SRAL and fi-17Abp peptides for 6 h. MFI was determined by flow cytometry and the relative MFI was normalized to the control group. Data are presented as the mean ± SD, and error bars represent the standard deviation of biological replicates (n = 3). P values were determined by one-way ANOVA with Tukey’s multiple comparisons test. […]

[2] = molecular target: T1, SR-A (Mus musculus, UniProt P30204); assay: SR-A inhibition assay with poly I / poly C (IL-17A uptake); format: cell-based; conditions: RAW264.7, with exogenous IL-17A and the peptide mixture
T1 construct: endogenous in cells; host or cells: RAW264.7
T1 sequence (P30204 1-458): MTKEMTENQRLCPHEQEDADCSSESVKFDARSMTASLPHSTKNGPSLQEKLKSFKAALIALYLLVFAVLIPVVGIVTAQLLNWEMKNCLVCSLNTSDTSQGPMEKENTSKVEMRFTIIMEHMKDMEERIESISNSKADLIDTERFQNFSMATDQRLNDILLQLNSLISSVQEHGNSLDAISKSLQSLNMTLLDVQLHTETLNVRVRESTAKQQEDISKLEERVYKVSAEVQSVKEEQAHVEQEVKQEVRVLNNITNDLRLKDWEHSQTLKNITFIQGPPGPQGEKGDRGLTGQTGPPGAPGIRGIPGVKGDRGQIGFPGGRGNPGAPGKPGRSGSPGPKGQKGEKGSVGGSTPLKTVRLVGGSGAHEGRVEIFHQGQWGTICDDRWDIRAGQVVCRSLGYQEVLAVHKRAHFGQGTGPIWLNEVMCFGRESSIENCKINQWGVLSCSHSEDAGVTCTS
Experimental: To verify the involvement of SR-A in the IL-17A endocytosis, RAW264.7 cells were treated with the SR-A inhibitor Poly I or the control Poly C at the indicated concentration together with the 50 μM 17Abp and SRAL mixture and 0.5 μg/ml IL-17A for 6 h. Then, flow cytometry analysis was used to measure the intracellular IL-17A level according to the procedure mentioned above.

[3] = test system: IMQ-induced psoriasis-like mouse model; assay: IMQ-induced psoriasis mouse model: acanthosis (H&E of back skin); format: in vivo; conditions: day 7, H&E of back skin, IMQ psoriasis BALB/c mice, i.p. 7 days: fm-17Abp 15, fm-SRAL 22, 17A-Lytaca 15+22, control-Lytaca 12+22 mg/kg/day, MTX 1 mg/kg/twice day
Experimental: 8 to10-week-old female BALB/c mice were purchased from Peking University Health Science Center Department of Laboratory Animal Science. They were randomly divided into seven groups. Vehicle group (PBS administration) was treated with 62.5 mg/day of Vaseline cream while the other six groups were treated with 62.5 mg/day of 5% IMQ cream (Sichuan Med-shine Pharmaceuticals) on the shaved back skin (2 cm × 3 cm) of mice (days 1–7).
The psoriasis area and severity index (PASI) consists of measurements of skin erythema, scale, and thickness. They were scored independently on a scale of 0–4: 0, none; 1, slight; 2, moderate; 3, marked; 4, very marked. The cumulative PASI score was obtained by adding the 3 index scores (scores of 0–12). The thickness of the mouse skin was measured using a micrometer, and the average value was measured three times a day. For histopathology analysis, tissues from the euthanized animals were fixed in formalin and embedded in paraffin. Sections (5 μm thickness) were stained with H&E.

[4] = molecular target: T2, IL-17A (Mus musculus, UniProt Q62386); assay: IL-17A protein level in skin lesion (ELISA); format: in vivo; conditions: i.p. 7 days: fm-17Abp 15, fm-SRAL 22, 17A-Lytaca 15+22, control-Lytaca 12+22 mg/kg/day, MTX 1 mg/kg/twice day
T2 sequence (Q62386 26-158): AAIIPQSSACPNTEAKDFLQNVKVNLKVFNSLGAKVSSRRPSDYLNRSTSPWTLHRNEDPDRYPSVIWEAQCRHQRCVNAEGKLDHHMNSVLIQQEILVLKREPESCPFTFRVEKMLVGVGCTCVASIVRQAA
Experimental: Plasma cytokine concentrations of IL-17A, IL-6, IL-22, and CCL-20 were determined by a commercial ELISA kit (Dogesce). For skin IL-17A detection, the back skin of mice was isolated and triturated with a grinder (Tiss-24, Jing Xin). Cell debris was precipitated via centrifugation (1000×g, 4 °C, 15 min), and IL-17A was measured in the supernatant using the IL-17A ELISA kit (Dogesce) and normalized to the total protein concentration, which was determined via BCA assay.

[5] = molecular target: T3, PD-L1 (Mus musculus, UniProt Q9EP73); assay: Western blot of PD-L1 in RAW264.7 cells; format: cell-based; conditions: Suppl Fig.18c, 50 μM, PBS = 100
T3 construct: endogenous in cells; host or cells: RAW264.7 (WT and SR-A-KO)
T3 sequence (Q9EP73 19-290): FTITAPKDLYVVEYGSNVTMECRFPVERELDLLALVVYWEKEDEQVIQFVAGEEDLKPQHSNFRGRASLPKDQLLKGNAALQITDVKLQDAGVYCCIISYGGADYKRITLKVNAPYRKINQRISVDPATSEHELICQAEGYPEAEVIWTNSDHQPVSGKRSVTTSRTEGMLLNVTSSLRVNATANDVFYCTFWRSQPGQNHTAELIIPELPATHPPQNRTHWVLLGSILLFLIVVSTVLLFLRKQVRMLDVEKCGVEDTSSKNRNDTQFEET
Experimental: Proteins were extracted using RIPA buffer (Beyotime) supplemented with protease inhibitors (Beyotime) and quantified using the BCA assay (Solarbio). SDS–PAGE was performed to separate proteins, which were then transferred to PVDF membranes (EMD Millipore). Next, the membranes were blocked in 5% fat-free milk for 2 h and incubated with primary antibodies at 4 °C overnight. including Rabbit anti-GAPDH antibody (1:5000, ab181602, Abcam), Mouse anti-GAPDH antibody (1:5000, 60004-1-Ig, Proteintech), Rabbit anti-CD2O4 antibody (1:1000, ab151707, Abcam), Mouse anti-PD-L1antibody (1:1000, 66248-1-Ig, Proteintech), Mouse anti-His-Tag antibody (1:2000, CW0286, CoWin Biosciences), Phospho-p44/42 MAPK (Erk1/2) (Thr202/Tyr204) (D13.14.4E) XP® Rabbit mAb, (1:1000, 4370T, Cell Signaling Technology), p44/42 MAPK (Erk1/2) (137F5) Rabbit mAb (1:1000 4695T, Cell Signaling Technology). After washing the membranes three times, secondary antibodies including HRP-conjugated Affinipure Goat Anti-Mouse IgG(H + L) (1:5000, SA00001-1, Proteintech), HRP-conjugated Affinipure Goat Anti-Rabbit IgG(H + L) (1:5000, SA00001-2, Proteintech) labeled with horseradish peroxidase (Proteintech) were applied at room temperature for 2 h and the immunoreactivity was visualized by supper ECL western blotting substrate (Coolaber). The densitometric analysis was performed by ImageJ software (NIH).

## [N-]=[N+]=[N-].[Na+] [NaN3]
[1]
  Effect of endocytosis/energy inhibitor on IL-17A uptake (in words): significantly reduced intracellular fluorescence signals of IL-17A

## methyl-β-cyclodextrin [Me-β-CD]
[1]
  Effect of endocytosis/energy inhibitor on IL-17A uptake (in words): significant decreases in cellular fluorescence

## CN(C)CCCN1c2ccccc2Sc2ccc(Cl)cc21 [CPZ, chlorpromazine]
[1]
  Effect of endocytosis/energy inhibitor on IL-17A uptake (in words): significant decreases in cellular fluorescence

## polyinosinic acid [Poly I]
[2]
  Effect on IL-17A uptake efficiency (in words): concentration-dependent inhibition

## CCN(c1nc(N)c(C(=O)N=C(N)N)nc1Cl)C(C)C [EIPA, 5-(N-ethyl-N-isopropyl)-amiloride]
[1]
  Effect of endocytosis/energy inhibitor on IL-17A uptake (in words): decreased IL-17A uptake

## CN(Cc1cnc2nc(N)nc(N)c2n1)c1ccc(C(=O)N[C@@H](CCC(=O)O)C(=O)O)cc1 [MTX, methotrexate]
[3]; animal 1 of n = 5
  Acanthosis: 66.3 μm
[3]; animal 2 of n = 5
  Acanthosis: 89.8 μm
[3]; animal 3 of n = 5
  Acanthosis: 73.7 μm
[3]; animal 4 of n = 5
  Acanthosis: 59.4 μm
[3]; animal 5 of n = 5
  Acanthosis: 85.7 μm
[4]; day 7, animal 1 of n = 5, IMQ psoriasis BALB/c mice
  Skin IL-17A: 60.0538 pg/mg protein
[4]; day 7, animal 2 of n = 5, IMQ psoriasis BALB/c mice
  Skin IL-17A: 102.2787 pg/mg protein
[4]; day 7, animal 3 of n = 5, IMQ psoriasis BALB/c mice
  Skin IL-17A: 103.0959 pg/mg protein
[4]; day 7, animal 4 of n = 5, IMQ psoriasis BALB/c mice
  Skin IL-17A: 57.7792 pg/mg protein
[4]; day 7, animal 5 of n = 5, IMQ psoriasis BALB/c mice
  Skin IL-17A: 78.3380 pg/mg protein

## C[C@H](NC(=O)[C@H](CCC(=O)O)NC(=O)[C@H](C)NC(=O)[C@H](CCC(=O)O)NC(=O)[C@H](C)NC(=O)[C@H](CCC(=O)O)NC(=O)[C@H](C)NC(=O)[C@H](CCC(=O)O)NC(=O)[C@H](C)NC(=O)[C@H](CCC(=O)O)NC(=O)[C@H](C)NC(=O)[C@H](CCC(=O)O)NC(=O)[C@H](C)NC(=O)[C@H](CCC(=O)O)NC(=O)[C@H](C)NC(=O)[C@H](CCC(=O)O)NC(=O)[C@H](C)NC(=O)[C@H](CCC(=O)O)NC(=O)[C@H](C)NC(=O)[C@H](CCC(=O)O)NC(=O)[C@H](C)NC(=O)[C@H](CCC(=O)O)NC(=O)[C@H](C)NC(=O)[C@H](CCC(=O)O)NC(=O)[C@H](C)NC(=O)[C@H](CCC(=O)O)NC(=O)[C@H](C)NC(=O)[C@H](CCC(=O)O)NC(=O)[C@H](C)NC(=O)[C@H](CCC(=O)O)NC(=O)CCCCCNC(=O)[C@H](Cc1ccccc1)NC(=O)[C@H](Cc1ccccc1)NC(=O)Cc1ccc2ccccc2c1)C(N)=O [nf-SRAL] ({Acetyl(2-naphthyl)}-FF[Ahx]EAEAEAEAEAEAEAEAEAEAEAEAEAEAEA-NH2)
[5]; replicate 1
  Relative intensity of PD-L1: 96
[5]; replicate 2
  Relative intensity of PD-L1: 106
[5]; replicate 3
  Relative intensity of PD-L1: 102

## polycytidylic acid [Poly C]
[2]
  Effect on IL-17A uptake efficiency (in words): no discernible impact
